Measurements reported in ChEMBL document CHEMBL4052645, “Discovery of potent and efficacious pyrrolopyridazines as dual JAK1/3 inhibitors” (Bioorg Med Chem Lett, 2017).

Columns and labels:
[1] = target: Voltage-gated inwardly rectifying potassium channel KCNH2 (Homo sapiens, UniProt Q12809); assay: Inhibition of human ERG by flux-based assay
[2] = Selectivity ratio of IC50 for JAK2 dependent EPO-induced STAT5A phosphorylation in human TF1 cells to IC50 for JAK1/JAK3 dependent IL2-induced STAT3 phosphorylation in human PBMC derived T-cells
[3] = target: T1, Tyrosine-protein kinase JAK3 (Homo sapiens, UniProt P52333); assay: Inhibition of JAK3 (unknown origin) using CSKtide as substrate after 30 mins in presence of [gamma33P]ATP by liquid scintillation counting method
T1 sequence (P52333 whole entry): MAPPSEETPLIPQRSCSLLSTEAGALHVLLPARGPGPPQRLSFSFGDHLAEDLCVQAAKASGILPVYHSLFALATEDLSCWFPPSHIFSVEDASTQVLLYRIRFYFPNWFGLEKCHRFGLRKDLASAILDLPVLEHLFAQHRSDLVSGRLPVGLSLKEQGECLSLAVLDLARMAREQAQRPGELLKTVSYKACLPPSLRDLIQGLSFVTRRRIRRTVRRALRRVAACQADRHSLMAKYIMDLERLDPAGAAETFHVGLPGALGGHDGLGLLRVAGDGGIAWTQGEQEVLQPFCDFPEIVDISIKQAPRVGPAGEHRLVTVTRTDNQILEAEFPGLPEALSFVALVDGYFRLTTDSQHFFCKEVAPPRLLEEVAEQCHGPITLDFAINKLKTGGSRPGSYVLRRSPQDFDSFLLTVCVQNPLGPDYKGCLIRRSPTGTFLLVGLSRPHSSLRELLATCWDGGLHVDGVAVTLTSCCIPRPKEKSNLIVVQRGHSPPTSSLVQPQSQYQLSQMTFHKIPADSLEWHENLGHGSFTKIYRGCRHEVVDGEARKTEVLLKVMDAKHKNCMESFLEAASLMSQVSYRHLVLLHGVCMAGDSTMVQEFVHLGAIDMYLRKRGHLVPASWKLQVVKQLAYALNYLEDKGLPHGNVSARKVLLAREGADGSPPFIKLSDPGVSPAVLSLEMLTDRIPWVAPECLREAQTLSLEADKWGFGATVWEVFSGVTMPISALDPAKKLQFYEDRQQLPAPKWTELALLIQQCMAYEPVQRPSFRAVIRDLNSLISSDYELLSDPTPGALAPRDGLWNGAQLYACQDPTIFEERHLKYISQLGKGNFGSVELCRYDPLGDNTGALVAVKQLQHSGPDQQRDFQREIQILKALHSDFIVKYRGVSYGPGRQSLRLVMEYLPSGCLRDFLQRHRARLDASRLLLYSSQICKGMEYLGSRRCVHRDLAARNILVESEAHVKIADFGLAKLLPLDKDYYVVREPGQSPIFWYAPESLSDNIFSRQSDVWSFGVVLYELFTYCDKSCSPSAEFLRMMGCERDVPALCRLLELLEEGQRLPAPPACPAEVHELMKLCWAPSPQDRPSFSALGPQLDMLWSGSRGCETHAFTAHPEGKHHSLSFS

JAK3/JAK1 = JAK3/JAK1 (Homo sapiens, UniProt P23458+P52333); assay: Inhibition of JAK1/JAK3 in human whole blood assessed as reduction in IL-2 induced IFN-gamma production after 18 hrs by ELISA; format: protein-complex assay
Chain of JAK3/JAK1 (P23458 whole entry, one chain of several): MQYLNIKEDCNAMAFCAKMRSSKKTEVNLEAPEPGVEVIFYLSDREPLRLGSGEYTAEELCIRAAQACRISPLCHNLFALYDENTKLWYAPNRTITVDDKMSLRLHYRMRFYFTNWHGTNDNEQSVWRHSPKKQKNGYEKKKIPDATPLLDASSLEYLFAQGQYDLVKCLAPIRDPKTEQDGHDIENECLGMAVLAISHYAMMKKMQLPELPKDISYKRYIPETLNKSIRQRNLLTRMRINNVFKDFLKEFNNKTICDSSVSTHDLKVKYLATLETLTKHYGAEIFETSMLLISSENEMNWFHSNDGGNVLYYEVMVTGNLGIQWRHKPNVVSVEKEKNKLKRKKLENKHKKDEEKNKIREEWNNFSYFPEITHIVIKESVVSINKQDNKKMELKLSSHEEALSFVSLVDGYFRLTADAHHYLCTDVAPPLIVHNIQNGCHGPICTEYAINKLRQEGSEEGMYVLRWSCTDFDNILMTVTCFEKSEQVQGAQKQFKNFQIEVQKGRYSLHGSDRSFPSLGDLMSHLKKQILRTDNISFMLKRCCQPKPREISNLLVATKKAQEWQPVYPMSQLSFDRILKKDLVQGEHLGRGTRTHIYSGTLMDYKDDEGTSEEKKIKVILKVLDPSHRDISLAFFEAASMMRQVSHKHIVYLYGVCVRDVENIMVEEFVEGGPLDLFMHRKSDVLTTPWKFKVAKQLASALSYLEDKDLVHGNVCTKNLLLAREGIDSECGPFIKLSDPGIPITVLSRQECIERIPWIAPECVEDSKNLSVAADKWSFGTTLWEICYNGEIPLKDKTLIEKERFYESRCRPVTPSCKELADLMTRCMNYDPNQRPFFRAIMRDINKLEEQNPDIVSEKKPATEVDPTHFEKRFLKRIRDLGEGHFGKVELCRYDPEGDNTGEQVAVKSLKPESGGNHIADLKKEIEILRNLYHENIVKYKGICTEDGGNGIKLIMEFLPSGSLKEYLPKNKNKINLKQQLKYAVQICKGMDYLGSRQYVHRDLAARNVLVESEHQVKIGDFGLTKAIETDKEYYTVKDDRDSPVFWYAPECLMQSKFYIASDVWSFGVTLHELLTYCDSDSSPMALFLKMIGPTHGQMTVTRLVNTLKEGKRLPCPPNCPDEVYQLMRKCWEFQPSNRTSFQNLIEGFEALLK

[4] = target: Tyrosine-protein kinase JAK1 (Homo sapiens, UniProt P23458); assay: Inhibition of GST-tagged JAK1 (unknown origin) after 3 hrs by Caliper assay
Chain of Tyrosine-protein kinase JAK1 (P23458 whole entry): as the sequence (P23458 whole entry, one chain of several) above

[5] = target: Tyrosine-protein kinase JAK2 (Homo sapiens, UniProt O60674); assay: Inhibition of GST-tagged JAK2 (unknown origin) after 3 hrs by Caliper assay
Chain of Tyrosine-protein kinase JAK2 (O60674 whole entry): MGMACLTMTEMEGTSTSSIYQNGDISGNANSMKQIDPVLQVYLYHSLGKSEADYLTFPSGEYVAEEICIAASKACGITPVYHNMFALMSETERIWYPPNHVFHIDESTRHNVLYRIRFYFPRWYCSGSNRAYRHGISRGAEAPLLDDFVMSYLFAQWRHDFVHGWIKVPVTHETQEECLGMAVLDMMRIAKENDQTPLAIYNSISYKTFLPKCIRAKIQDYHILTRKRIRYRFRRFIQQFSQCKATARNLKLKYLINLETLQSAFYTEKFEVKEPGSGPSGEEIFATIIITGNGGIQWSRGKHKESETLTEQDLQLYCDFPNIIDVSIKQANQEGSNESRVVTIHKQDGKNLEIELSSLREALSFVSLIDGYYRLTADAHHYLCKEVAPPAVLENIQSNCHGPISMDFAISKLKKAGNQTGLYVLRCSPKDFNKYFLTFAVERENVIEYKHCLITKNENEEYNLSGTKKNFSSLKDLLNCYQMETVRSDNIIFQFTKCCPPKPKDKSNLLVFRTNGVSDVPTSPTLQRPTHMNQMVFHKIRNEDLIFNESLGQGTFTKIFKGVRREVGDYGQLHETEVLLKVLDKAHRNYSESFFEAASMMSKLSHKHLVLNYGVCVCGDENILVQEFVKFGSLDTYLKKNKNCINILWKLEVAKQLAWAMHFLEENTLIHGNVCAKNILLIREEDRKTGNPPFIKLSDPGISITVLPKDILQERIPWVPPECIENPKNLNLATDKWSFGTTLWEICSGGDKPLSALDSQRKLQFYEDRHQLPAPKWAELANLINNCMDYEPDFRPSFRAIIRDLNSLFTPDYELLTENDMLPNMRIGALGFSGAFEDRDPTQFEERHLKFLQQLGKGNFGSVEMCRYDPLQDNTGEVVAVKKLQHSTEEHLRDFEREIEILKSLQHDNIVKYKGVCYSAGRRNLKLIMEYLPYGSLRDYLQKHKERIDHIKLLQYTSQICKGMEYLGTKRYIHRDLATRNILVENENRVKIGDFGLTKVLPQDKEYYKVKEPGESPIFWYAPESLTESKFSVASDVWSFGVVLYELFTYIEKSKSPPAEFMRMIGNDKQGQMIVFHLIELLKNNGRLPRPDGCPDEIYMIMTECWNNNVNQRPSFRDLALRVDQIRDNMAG

[6] = target: Non-receptor tyrosine-protein kinase TYK2 (Homo sapiens, UniProt P29597); assay: Inhibition of His-tagged TYK2 (unknown origin) after 3 hrs by Caliper assay
Chain of Non-receptor tyrosine-protein kinase TYK2 (P29597 whole entry): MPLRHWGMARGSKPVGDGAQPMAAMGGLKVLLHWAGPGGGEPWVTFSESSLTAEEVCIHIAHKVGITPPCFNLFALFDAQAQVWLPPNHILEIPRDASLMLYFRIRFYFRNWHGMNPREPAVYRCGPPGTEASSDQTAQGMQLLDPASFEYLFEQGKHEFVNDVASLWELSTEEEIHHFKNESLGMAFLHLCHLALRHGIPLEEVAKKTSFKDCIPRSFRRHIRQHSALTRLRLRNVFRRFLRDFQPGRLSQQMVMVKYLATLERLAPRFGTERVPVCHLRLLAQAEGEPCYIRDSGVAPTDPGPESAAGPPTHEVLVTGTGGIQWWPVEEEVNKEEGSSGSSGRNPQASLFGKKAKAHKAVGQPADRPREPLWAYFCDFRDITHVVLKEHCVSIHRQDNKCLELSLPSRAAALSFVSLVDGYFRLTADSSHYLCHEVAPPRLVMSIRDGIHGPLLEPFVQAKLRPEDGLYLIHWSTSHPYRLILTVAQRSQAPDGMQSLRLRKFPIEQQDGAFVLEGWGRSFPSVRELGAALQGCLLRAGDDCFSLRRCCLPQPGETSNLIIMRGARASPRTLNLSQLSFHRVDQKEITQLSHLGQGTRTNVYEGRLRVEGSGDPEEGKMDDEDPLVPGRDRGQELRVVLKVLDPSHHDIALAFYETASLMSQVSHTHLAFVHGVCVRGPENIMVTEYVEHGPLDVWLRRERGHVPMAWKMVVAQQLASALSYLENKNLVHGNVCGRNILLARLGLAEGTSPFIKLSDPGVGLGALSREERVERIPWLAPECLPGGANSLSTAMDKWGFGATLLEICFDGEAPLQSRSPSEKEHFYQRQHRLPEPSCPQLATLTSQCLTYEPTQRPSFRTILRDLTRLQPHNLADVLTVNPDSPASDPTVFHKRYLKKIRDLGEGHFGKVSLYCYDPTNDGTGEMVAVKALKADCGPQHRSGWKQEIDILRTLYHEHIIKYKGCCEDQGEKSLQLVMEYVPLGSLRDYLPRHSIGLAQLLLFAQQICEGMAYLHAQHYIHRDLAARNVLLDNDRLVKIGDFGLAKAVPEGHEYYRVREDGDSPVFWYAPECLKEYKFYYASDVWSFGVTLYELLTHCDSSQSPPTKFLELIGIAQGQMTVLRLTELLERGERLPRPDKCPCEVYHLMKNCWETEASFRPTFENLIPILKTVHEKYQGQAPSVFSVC

[7] = Permeability from apical side to basolateral side in human Caco2 cells; format: ADME, cell-based; details: Caco-2, read-out: permeability
[8] = Cmax in mouse at 10 mg/kg, po; format: ADME, organism-based; set-up: dose 10 mg/kg, route oral; details: in vivo
[9] = Protein binding in mouse plasma at 10 mg/kg, po; format: ADME, organism-based; details: read-out: PPB (converted)
[10] = Metabolic stability in mouse liver microsomes assessed as compound remaining after 10 mins; format: ADME, microsome; details: read-out: Stability

Chain of Voltage-gated inwardly rectifying potassium channel KCNH2 (Q12809 whole entry): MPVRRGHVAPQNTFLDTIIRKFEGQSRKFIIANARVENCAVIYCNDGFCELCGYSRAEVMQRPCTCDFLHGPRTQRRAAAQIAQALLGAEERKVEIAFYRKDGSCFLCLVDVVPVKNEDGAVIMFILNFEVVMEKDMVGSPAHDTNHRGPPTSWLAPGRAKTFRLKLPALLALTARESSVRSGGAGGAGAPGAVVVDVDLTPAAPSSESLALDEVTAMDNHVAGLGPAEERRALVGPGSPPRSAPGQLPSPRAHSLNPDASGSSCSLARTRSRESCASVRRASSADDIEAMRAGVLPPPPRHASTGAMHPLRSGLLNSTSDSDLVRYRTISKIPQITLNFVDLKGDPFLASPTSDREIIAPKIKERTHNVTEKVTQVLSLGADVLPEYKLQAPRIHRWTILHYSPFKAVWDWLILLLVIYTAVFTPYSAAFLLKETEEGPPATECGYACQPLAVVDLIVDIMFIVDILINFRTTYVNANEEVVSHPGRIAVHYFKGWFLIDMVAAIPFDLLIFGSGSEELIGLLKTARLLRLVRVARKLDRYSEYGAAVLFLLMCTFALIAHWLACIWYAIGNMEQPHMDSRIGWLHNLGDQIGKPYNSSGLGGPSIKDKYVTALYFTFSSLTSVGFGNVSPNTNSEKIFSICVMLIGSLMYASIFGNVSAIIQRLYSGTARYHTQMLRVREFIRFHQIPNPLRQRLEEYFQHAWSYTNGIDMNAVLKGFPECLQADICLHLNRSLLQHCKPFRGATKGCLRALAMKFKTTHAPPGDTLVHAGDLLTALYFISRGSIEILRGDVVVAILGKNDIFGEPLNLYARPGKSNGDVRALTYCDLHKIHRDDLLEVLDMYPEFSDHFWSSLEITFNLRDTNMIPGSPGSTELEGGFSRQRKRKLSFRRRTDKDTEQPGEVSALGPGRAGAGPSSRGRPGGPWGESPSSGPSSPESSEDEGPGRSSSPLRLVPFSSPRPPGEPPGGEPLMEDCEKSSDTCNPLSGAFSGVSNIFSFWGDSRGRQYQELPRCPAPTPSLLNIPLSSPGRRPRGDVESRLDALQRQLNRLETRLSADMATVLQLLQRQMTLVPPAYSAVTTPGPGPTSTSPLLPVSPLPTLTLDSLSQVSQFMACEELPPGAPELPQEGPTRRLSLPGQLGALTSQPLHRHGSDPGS

Row | Compound | IC50 [3] [nM] | IC50 (JAK3/JAK1) [nM] | IC50 [4] [nM] | IC50 [5] [nM] | IC50 [6] [nM] | Papp A→B [7] [×10⁻⁶ cm/s] | Cmax [8] [nM] | fraction unbound [9] | remaining at 10 min [10] [%] | IC50 [1] [µM] | Ratio IC50 [2]
1 | COc1ccccc1-c1cc2c(N[C@@H]3CC[C@](C)(N)C3(C)C)c(C(N)=O)cnn2c1 | 1.3 | 680 | 0.5 | 20 | 21 | – | – | – | – | 7.5 | 562
2 | CC(C)Oc1ccc(-c2cc3c(N[C@@H]4CC[C@](C)(N)C4(C)C)c(C(N)=O)cnn3c2)cn1 | 0.5 | 400 | 1.2 | 20 | 30 | – | – | – | – | 5.3 | 2
3 | CC1(C)[C@H](Nc2c(C(N)=O)cnn3cc(-c4ccnc(F)c4)cc23)CC[C@]1(C)N | 1.6 | 270 | 3.3 | 38 | 59 | – | – | – | – | – | –
4 | CC1(C)[C@H](Nc2c(C(N)=O)cnn3cc(-c4ccc(C#N)cc4)cc23)CC[C@]1(C)N | 1 | 66 | 0.9 | 7.3 | 8.6 | – | – | – | – | – | –
5 | Cc1cccc(-c2cc3c(N[C@@H]4CC[C@](C)(N)C4(C)C)c(C(N)=O)cnn3c2)c1 | 0.9 | 700 | 0.9 | 11 | 7.9 | – | – | – | – | 7.7 | 50
6 | Cc1ccccc1-c1cc2c(N[C@@H]3CC[C@](C)(N)C3(C)C)c(C(N)=O)cnn2c1 | 1.8 | 490 | 0.7 | 49 | 51 | – | – | – | – | – | –
7 | CC1(C)[C@H](Nc2c(C(N)=O)cnn3cc(-c4ccc(F)cc4)cc23)CC[C@]1(C)N | 2.1 | 420 | 1.2 | 27 | 14 | – | – | – | – | 10.2 | 230
8 | CC1(C)[C@H](Nc2c(C(N)=O)cnn3cc(-c4ccccc4Cl)cc23)CC[C@]1(C)N | 1.3 | > 1000 | 0.8 | 27 | 47 | – | – | – | – | – | –
9 | CC1(C)[C@H](Nc2c(C(N)=O)cnn3cc(-c4cccc(Cl)c4)cc23)CC[C@]1(C)N | 1 | 780 | 1.3 | 17 | 20 | – | – | – | – | – | –
10 | CC1(C)[C@H](Nc2c(C(N)=O)cnn3cc(-c4ccncc4)cc23)CC[C@]1(C)N | 6.7 | 56 | 4.9 | 80 | 44 | < 1.5 | < 250 | 0.31 | 75 | – | –
11 | CC1(C)[C@H](Nc2c(C(N)=O)cnn3cc(-c4cccnc4)cc23)CC[C@]1(C)N | 0.6 | 110 | – | 11 | 34 | – | – | – | – | – | –
12 | CC1(C)[C@H](Nc2c(C(N)=O)cnn3cc(-c4ccccc4F)cc23)CC[C@]1(C)N | 1.5 | 630 | 1.2 | 17 | 15 | – | – | – | – | – | –
13 | CC1(C)[C@H](Nc2c(C(N)=O)cnn3cc(-c4cncc(F)c4)cc23)CC[C@]1(C)N | 1.9 | 220 | 6.6 | 44 | 60 | – | – | – | – | – | –
14 | COc1cc(-c2cc3c(N[C@@H]4CC[C@](C)(N)C4(C)C)c(C(N)=O)cnn3c2)ccn1 | 2.8 | 350 | 2.3 | 36 | 36 | – | – | – | – | – | 86
15 | CC1(C)[C@H](Nc2c(C(N)=O)cnn3cc(-c4ccccc4C#N)cc23)CC[C@]1(C)N | 1.9 | 500 | 1.6 | 25 | 34 | – | – | – | – | – | 240
16 | CC1(C)[C@H](Nc2c(C(N)=O)cnn3cc(-c4ccc(C#N)nc4)cc23)CC[C@]1(C)N | 1 | 430 | 6.6 | 29 | 47 | – | – | – | – | – | –
17 | CCOc1ccc(-c2cc3c(N[C@@H]4CC[C@](C)(N)C4(C)C)c(C(N)=O)cnn3c2)cn1 | 1.1 | 800 | 4 | 30 | 38 | – | – | – | – | 17 | 120
18 | CC1(C)[C@H](Nc2c(C(N)=O)cnn3cc(-c4ccncc4F)cc23)CC[C@]1(C)N | 4.6 | 120 | 3.6 | 70 | 46 | 2.3 | < 250 | 0.22 | 68 | > 80 | 150
19 | Cc1ccc(-c2cc3c(N[C@@H]4CC[C@](C)(N)C4(C)C)c(C(N)=O)cnn3c2)cn1 | 0.9 | 84 | 2 | 22 | 29 | – | – | – | – | 8 | 80

Second part, led by results:

Row | IC50 [3] [nM] | IC50 (JAK3/JAK1) [nM] | IC50 [4] [nM] | IC50 [5] [nM] | IC50 [6] [nM] | Papp A→B [7] [×10⁻⁶ cm/s] | Cmax [8] [nM] | fraction unbound [9] | remaining at 10 min [10] [%] | Compound | IC50 [1] [µM] | Ratio IC50 [2]
20 | 1.6 | > 1000 | 1.2 | 22 | 22 | – | – | – | – | CC1(C)[C@H](Nc2c(C(N)=O)cnn3cc(-c4cccc(F)c4)cc23)CC[C@]1(C)N | 7.6 | –
21 | – | 97 | – | 140 | 180 | – | – | – | – | Cc1ccncc1-c1cc2c(N[C@@H]3CC[C@](C)(N)C3(C)C)c(C(N)=O)cnn2c1 | 18 | 120
22 | 11 | 240 | 28 | 160 | 190 | – | – | – | – | CC1(C)[C@H](Nc2c(C(N)=O)cnn3cc(-c4cncnc4)cc23)CC[C@]1(C)N | 8.5 | 180
23 | 1.5 | 170 | 0.6 | 15 | 9.2 | – | – | – | – | COc1ccc(-c2cc3c(N[C@@H]4CC[C@](C)(N)C4(C)C)c(C(N)=O)cnn3c2)cc1 | 13.8 | 46
24 | 4 | 75 | 2.4 | 19 | 29 | – | – | – | – | Cc1cnccc1-c1cc2c(N[C@@H]3CC[C@](C)(N)C3(C)C)c(C(N)=O)cnn2c1 | > 80 | 250
25 | 0.7 | > 2000 | 0.8 | 14 | 8.6 | – | – | – | – | Cc1ccc(-c2cc3c(N[C@@H]4CC[C@](C)(N)C4(C)C)c(C(N)=O)cnn3c2)cc1 | – | –
26 | 3.8 | > 1000 | 7.2 | 47 | 55 | – | – | – | – | CC1(C)[C@H](Nc2c(C(N)=O)cnn3cc(-c4cccc(C#N)c4)cc23)CC[C@]1(C)N | – | –
27 | 1.6 | 81 | 1.7 | 21 | 14 | 6.5 | < 250 | 0.51 | 83 | CC1(C)[C@H](Nc2c(C(N)=O)cnn3cc(-c4cc[nH]n4)cc23)CC[C@]1(C)N | – | –
28 | 0.8 | – | 0.9 | 15 | 10 | – | – | – | – | CC1(C)[C@H](Nc2c(C(N)=O)cnn3cc(-c4ccc(Cl)cc4)cc23)CC[C@]1(C)N | – | –
29 | 0.6 | 55 | 0.6 | 3.5 | 5.7 | – | – | – | – | Cc1cc(-c2cc3c(N[C@@H]4CC[C@](C)(N)C4(C)C)c(C(N)=O)cnn3c2)ccn1 | 30 | 8
30 | 0.4 | 200 | 1 | 15 | 12 | – | – | – | – | COc1cccc(-c2cc3c(N[C@@H]4CC[C@](C)(N)C4(C)C)c(C(N)=O)cnn3c2)c1 | 7.2 | 305
